Experimental findings from paper PMC12152171, “Dual-mode recognition of tRNA^Pro isoacceptors by Toxoplasma gondii Prolyl-tRNA synthetase” (EMBO Reports, 2025) are described below.

Assay [1] has as its target T1, Toxoplasma gondii prolyl-tRNA synthetase (TgProRS) (Toxoplasma gondii, UniProt S8G8I1).
T1 construct: gene TGME49_219850; lacking OTS and ProXp-ala (amino acid residues 1–333 removed), N-terminal His10 tag
As to the kind of experiment: [3H]-proline aminoacylation inhibition assay with cytosolic tRNA(Pro) (TgtRNAn^Pro); IC50 […] with apicoplast TgtRNAa^Pro. It is filed as biochemical.

Assay [2] deals with T1, Toxoplasma gondii prolyl-tRNA synthetase (TgProRS). Described as above. The class given is biochemical. The source holds these as a separate data set.

The IC50 is the midpoint of a concentration-inhibition curve. Lower therefore signals higher potency.

Read-outs that look alike come from different tables or passages of the source.

T1 sequence (S8G8I1 entry or part of it): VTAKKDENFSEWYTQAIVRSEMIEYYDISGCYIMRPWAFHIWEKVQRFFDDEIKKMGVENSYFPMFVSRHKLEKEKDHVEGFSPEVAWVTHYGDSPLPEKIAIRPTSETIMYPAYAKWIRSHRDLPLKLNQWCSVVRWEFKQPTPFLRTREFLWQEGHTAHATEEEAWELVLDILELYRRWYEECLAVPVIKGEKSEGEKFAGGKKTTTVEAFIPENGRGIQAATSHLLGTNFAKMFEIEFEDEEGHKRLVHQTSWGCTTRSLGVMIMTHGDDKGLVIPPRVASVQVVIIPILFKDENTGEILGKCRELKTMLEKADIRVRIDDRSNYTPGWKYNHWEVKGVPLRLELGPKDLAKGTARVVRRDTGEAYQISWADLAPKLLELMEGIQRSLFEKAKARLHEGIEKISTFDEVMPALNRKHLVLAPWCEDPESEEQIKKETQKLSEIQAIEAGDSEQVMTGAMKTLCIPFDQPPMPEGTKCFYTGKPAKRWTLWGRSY

In the case of `O=C(C[C@H]1NCCC[C@@H]1O)Cn1cnc2cc(Br)c(Cl)cc2c1=O` (racemic) [HF, Halofuginone], it took 0.005 µM to reach half-maximal inhibition in assay [1] (IC50).
In assay [2], `O=C(O)[C@@H]1CCN1` [A2C, Azetidine-2-carboxylic acid] showed an IC50 of 1300 µM.
